Assay results as given in patent US10543216B2, “Modus of administration of iron, and new formulations adapted for the said goal” (BIOFER S.P.A., priority 2013, dated 2020).
Where two headings read alike, the source gives them in different places.

Legend:
[1] = 100 mg of Fe2+ orally, healthy volunteers, Dresow et al., FIG. 5, cited from earlier work
[2] = tested on: Pig esophageal epithelium; experiment: in vitro permeation in the Franz cell (model of sublingual absorption); details: FIG. 2
Procedure: Sublingual absorption of Fe++ compounds was evaluated by means of in vitro permeation experiments using the Franz cell exemplified in FIG. 1. Pig esophageal epithelium was used as membrane. This experimental model is recognized as valid and reliable in the assessment of sublingual absorption of drugs [I. Diaz Del Consuelo, G. P. Pizzolato, F. Falsom, R. H. Guy, and Y. Jacques.: Evaluation of pig esophageal mucosa as a permeability barrier model for buccosal tissue. J. Pharm. […] Arch. […] Membrane preparation occurred by following the method described here. The esophagi were taken from the animals within one hour after sacrifice. The mucosa was separated from the muscle tissue with a lancet. To separate the epithelium, the mucosa was immersed in distilled water at 60° C. for 2 minutes and then the epithelium was removed from the underlying tissue with the aid of a spatula. The tissues thus prepared were stored at −20° C. until the time of use, when they were thawed to room temperature before being mounted on the vertical diffusion cells of the Franz type, a schematic view of which is shown in FIG. 1. The esophageal epithelium was placed on a regenerated cellulose filter (pore diameter 0.45 μm) with the luminal side facing up, and mounted between the donor and receptor compartments of the Franz cells. […] The exposed surface was 0.6 cm^2. The receptor compartment was filled with approximately 4 ml of physiological solution (0.9% NaCl w/v) and kept under constant magnetic agitation for the entire duration of the experiment. The entire system was thermostat-controlled at 37° C. Sampling of the receptor compartment was performed by drawing 200 μl of receptor solution, which were replaced immediately with an equal volume of fresh physiological solution. The samples were taken at preset time intervals, specifically at 0, 1, 2, 3, 4, 5 and 6 hours.
4 g of powder were suspended in 10 ml of physiological solution and left under agitation for 15 minutes, then the solution was filtered with regenerated cellulose filters (pore diameter 0.45 μm).
6 g of powder were suspended in 10 ml of physiological solution. The suspension was left under magnetic agitation for 25 minutes and then filtered with regenerated cellulose filters (pore diameter 0.45 μm).
7 g of powder were suspended in 6 ml of physiological solution. The suspension was left under magnetic agitation for 1 hour; at the end it was filtered with regenerated cellulose filters (pore diameter 0.45 μm).
An excess of ascorbic acid (2 g) was added to the solution. The suspension was left under magnetic agitation for 30 minutes and after filtration through regenerated cellulose filters (pore diameter 0.45 μm) was used as it was.
4 g of powder were suspended in 10 ml of physiological solution. The suspension was left under magnetic agitation for 15 hours, at the end of which it was filtered with regenerated cellulose filters (pore diameter 0.45 μm).
An excess of powder was suspended in 10 ml of physiological solution. The suspension was left under magnetic agitation for 15 hours, at the end of which it was filtered with regenerated cellulose filters (pore diameter 0.45 μm).

[3] = randomized clinical study, sublingual administration of 30 mg of Fe2+ to healthy volunteers; format: in vivo, human; details: for Serum Fe / Transferrin saturation / Total iron / NTBI (free non transferrin bound iron): 30 mg Fe2+ sublingual (6 sachets of example 6), fasting healthy volunteers n=2, average; for Total iron / NTBI (free non transferrin bound iron): ICP-MS; for NTBI (free non transferrin bound iron): ultrafiltration
Procedure: The participants were hospitalized for two days prior to administration until the next day and were under medical observation.
The samples were then analyzed with respect to the trend of (average) concentrations of various indicators over time.
Total iron measured in micrograms/dl (ICP-MS)
Free iron by ultrafiltration measured in micromoles/liter (=NTBI) (ICP-MS)
Total iron binding capacity (TIBC) measured in micrograms/dl (column separation, Vitros analyzer)
Transferrin saturation (PTS) measured in %
Serum iron (SI), measured in micrograms/dl, colorimetric method (Vitros analyzer)

## ferrous ascorbate [Fe++ ascorbate]
[1]; after 2 hours
  increase in transferrin saturation: approximately 45%
[1]; after two hours
  transferrin saturation (absolute): approximately 75%
[1]; at the time of administration
  Transferrin saturation: approximately 30%
[1]; within two hours, from 0
  free iron (NTBI): 6.7 µmol/L
[2]; 50 mg/ml solution, in the presence of ascorbic acid, pH 2.6, after 3 hours
  permeated divalent Fe: above 150 micrograms/square centimeter
[2]; 50 mg/ml solution, in the presence of ascorbic acid, pH 2.6, after 4 hours
  permeated divalent Fe: approximately 200 micrograms/square centimeter
[2]; 350 mg/ml solution, in the presence of ascorbic acid, pH 4.4, after 3 hours
  permeated divalent Fe: below 150 micrograms/square centimeter
[2]; 350 mg/ml solution, in the presence of ascorbic acid, pH 4.4, after 4 hours
  permeated divalent Fe: approximately 200 micrograms/square centimeter
[2]; 400 mg/ml solution, in the absence of ascorbic acid, pH 4.4, after 3 hours
  permeated divalent Fe: above 100 micrograms/square centimeter
[2]; 400 mg/ml solution, in the absence of ascorbic acid, pH 4.4, after 6 hours
  permeated divalent Fe: approximately 150 micrograms/square centimeter
[2]; 600 mg/ml solution, in the absence of ascorbic acid, pH 4.4, after 3 hours
  permeated divalent Fe: above 100 micrograms/square centimeter
[2]; 600 mg/ml solution, in the absence of ascorbic acid, pH 4.4, after 6 hours
  permeated divalent Fe: approximately 125 micrograms/square centimeter
[2]; 1000 mg/ml solution, in the absence of ascorbic acid, pH 4.4, after 3 hours
  permeated divalent Fe: approximately 50 micrograms/square centimeter
[2]; 1000 mg/ml solution, in the absence of ascorbic acid, pH 4.4, after 5 hours
  permeated divalent Fe: approximately 100 micrograms/square centimeter
[3]; time 0 h
  Serum Fe: 0 µg/dL
[3]; time 0 min (at administration)
  Transferrin saturation: ~24%
[3]; time 0.033 h
  Serum Fe: 5.5 µg/dL
[3]; time 2 min
  Transferrin saturation: 28%
  NTBI (free non transferrin bound iron): -0.306 µmol/L
[3]; time 0.100 h
  Serum Fe: 7 µg/dL
[3]; time 6 min
  Transferrin saturation: 28%
  NTBI (free non transferrin bound iron): -0.215 µmol/L
[3]; time 0.200 h
  Serum Fe: 6 µg/dL
[3]; time 12 min
  Transferrin saturation: 28.5%
  NTBI (free non transferrin bound iron): 0.029 µmol/L
[3]; time 0.330 h
  Serum Fe: 10 µg/dL
[3]; time 20 min
  Transferrin saturation: 26.5%
  NTBI (free non transferrin bound iron): 0.067 µmol/L
[3]; time 0.500 h
  Serum Fe: 24 µg/dL
[3]; time 30 min
  Transferrin saturation: 36%
  NTBI (free non transferrin bound iron): 0.106 µmol/L
[3]; time 0.750 h
  Serum Fe: 51.5 µg/dL
[3]; time 45 min
  Transferrin saturation: 40.5%
  NTBI (free non transferrin bound iron): 0.448 µmol/L
[3]; time 1.000 h
  Serum Fe: 72 µg/dL
[3]; time 60 min
  Transferrin saturation: 50%
  NTBI (free non transferrin bound iron): 0.311 µmol/L
[3]; time 1.250 h
  Serum Fe: 91 µg/dL
[3]; time 75 min
  Transferrin saturation: 51.5%
  NTBI (free non transferrin bound iron): 1.191 µmol/L
[3]; time 1.500 h
  Serum Fe: 110.5 µg/dL
[3]; time 90 min
  Transferrin saturation: 60%
  NTBI (free non transferrin bound iron): 0.084 µmol/L
[3]; time 1.750 h
  Serum Fe: 118.5 µg/dL
[3]; time 105 min
  Transferrin saturation: 49.5%
  NTBI (free non transferrin bound iron): 0.806 µmol/L
[3]; time 2.000 h
  Serum Fe: 129 µg/dL
[3]; time 120 min (2 hours), listed as Fe2+ (as ascorbate)
  Transferrin saturation: 65.5%
[3]; time 120 min (2 hours), listed as Fe2+ Ascorbate
  Transferrin saturation: 66.5%
[3]; 30 mg of Fe2+ sublingual, healthy volunteers, after 2 hours versus time of administration
  increase in transferrin saturation (PTS): 42.5%
[3]; 30 mg of Fe2+ sublingual, healthy volunteers, after 2 hours, from 0
  free iron (NTBI): 0.34 µmol/L
[3]; time 0.00 h
  Total iron: 0 µg/dL
[3]; time 0.03 h
  Total iron: -7.4 µg/dL
[3]; time 0.10 h
  Total iron: 6.2 µg/dL
[3]; time 0.20 h
  Total iron: -13.54 µg/dL
[3]; time 0.33 h
  Total iron: 5.95 µg/dL
[3]; time 0.50 h
  Total iron: 6.37 µg/dL
[3]; time 0.75 h
  Total iron: 41.58 µg/dL
[3]; time 1.00 h
  Total iron: 51.01 µg/dL
[3]; time 1.25 h
  Total iron: 80.17 µg/dL
[3]; time 1.50 h
  Total iron: 90.15 µg/dL
[3]; time 1.75 h
  Total iron: 95.7 µg/dL
[3]; time 2.00 h
  Total iron: 110.94 µg/dL
[3]; time 0 min
  NTBI (free non transferrin bound iron): 0.000 µmol/L
[3]; time 120 min
  NTBI (free non transferrin bound iron): 0.339 µmol/L
